Measurements from patent publication US12096769B2, “Mechanism of urea/solid acid interaction under storage conditions and storage stable solid compositions comprising urea and acid” (ECOLAB USA INC., priority 2017, dated 2024).

Tests used:
Assay type in all cases: physicochemical
[1] = pH in 17 grains per gallon (gpg) water, Example 5; details: Dose 625 ppm
Text: The pH of the urea/citric acid complex was also compared to those of citric acid and monosodium citrate.

[2] = Swelling of tablets made with various acids as the acid filler, Example 2
[3] = Tablet dimensional change at 40° C. and 90% humidity, Example 6; details: acid filler of the formulation
Method: A formulation using urea/citric acid complex as the acid filler were compared to those using urea or a mixture of urea and citric acid. In this Example, tablets were made according to the formulations in Table 8, then placed at 40° C. and 90% humidity. Their dimensional changes were measured during two-weeks period of time.

[4] = Block stability in a dispenser (swelling after 1 minute soak in water), Example 7; details: soaked in 1 inch of water at 43.3° C. (110° F.) for 1 minute; up to 18 hours
Method: Various blocks made from different formulations were screened for their block stability in a dispenser. During the experiments, the blocks were soaked in 1 inch of water at 43.3° C. (110° F.) for 1 minute, then measured for their swelling as a function of time.

Structure (SMILES): O=C([O-])CC(O)(CC(=O)O)C(=O)O.[Na+] [Monosodium citrate]
- pH in 17 gpg Water [1]: 5.6

Structure (SMILES): CC(O)C(=O)O (centres unmarked) [Lactic Acid]
- Swelling of the tablet using the acid as the filler ([2]; 4 Week at 40° C.): Weeping
- State of the tablet using the acid as the filler ([2]; at 50° C.): melted

Structure (SMILES): O=C(O)CC(=O)O [Malonic Acid]
- Swelling of the tablet using the acid as the filler ([2]; 4 Week at 40° C.): Weeping

Structure (SMILES): O=C(O)/C=C\C(=O)O [Maleic Acid]
- Swelling of the tablet using the acid as the filler ([2]; 4 Week at 40° C.): Melted

Structure (SMILES): O=C(O)CC(O)(CC(=O)O)C(=O)O [Citric Acid]
- pH in 17 gpg Water [1]: 4.45

Structure (SMILES): NC(N)=O.O=C(O)CC(O)(CC(=O)O)C(=O)O [Urea-Citrate, urea-citric acid complex]
- Storage stability as measured by percentage swelling (in words) [3]: best storage stability
- pH in 17 gpg Water [1]: 4.8
- Swelling of the tablet using the acid as the filler ([2]; at 2 weeks, 40° C.): 0.5% at 2 weeks
- Swelling of the block after soak (in words) [4]: swelling is minimal

Structure (SMILES): O=C(O)CC(O)C(=O)O (centres unmarked) [Malic Acid]
- Swelling of the tablet using the acid as the filler ([2]; 4 Week at 40° C.): ~5%
